{"source": "paper PMC10959927", "about": "“Platinum iodido drugs show potential anti-tumor activity, affecting cancer cell metabolism and inducing ROS and senescence in gastrointestinal cancer cells” (Communications Biology, 2024)", "key": {"PANC1 cells [1]": {"tested_on": "PANC1 cells", "assay": "ROS detection by confocal microscopy (DHE, MitoSox)", "assay_type": "cell-based, human", "conditions": "PANC1, 1 h treatment; H2O2 200 µM, CDDP 10 µM, I5 20 µM, I6 20 µM", "protocol": "Tumor cells were seeded at a density of 3 × 10^5 cells in 15 µm 8-well IBIDI plates and incubated overnight. […] Subsequently, cells were stained with 10 μM of dihydroethidium (DHE, cytosolic O2^·- probe, Sigma-Aldrich) or with 5 μM of Mitosox (mitochondrial O2^·- probe, Sigma-Aldrich) for 15–30 min[79] and then visualized on a confocal microscope (Confocal LSM 710 Zeiss, Biomedical Research Institute Alberto Sols, IIBm-CSIC-UAM, Madrid, Spain). The image analysis was realized using the software program Image J."}, "MKN45 cells [2]": {"tested_on": "MKN45 cells", "assay": "Seahorse XF OCR, ECAR and energy map", "assay_type": "cell-based, human", "parameters": "Basal resp. / Maximal resp. / SRC: unit not given here", "conditions": "MKN45, IC50 24 h", "outline": "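Cells seeded at 1 × 10^4 per well and incubated overnight before Seahorse mito stress run. After baseline OCR, sequential additions of 1.5 µM oligomycin, 1 µM FCCP, then 0.5 µM rotenone plus antimycin; OCR and ECAR recorded. Raw data normalized to total protein by BCA.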"}, "MKN45 cells [3]": {"tested_on": "MKN45 cells", "assay": "ATP determination assay (bioluminescence)", "assay_type": "cell-based, human", "conditions": "replicates", "protocol": "(§1) ATP determination assay. […] The analysis was performed using the ATP Bioluminescense Assay Kit CLS II (Cat. no. 11699695001, Roche) according to the manufacturer’s instructions. […] Data were normalized to total protein using the BCA protein assay kit (Thermo Scientific)."}, "PANC1 cells [4]": {"tested_on": "PANC1 cells", "assay": "ATP determination assay (bioluminescence)", "assay_type": "cell-based, human", "conditions": "replicates", "protocol": "as §1"}, "AGS cells [5]": {"tested_on": "AGS cells", "assay": "ATP determination assay (bioluminescence)", "assay_type": "cell-based, human", "conditions": "replicates", "protocol": "as §1"}, "MKN45 cells [6]": {"tested_on": "MKN45 cells", "assay": "Lactate production assay", "assay_type": "cell-based, human", "conditions": "replicates", "protocol": "(§2) Lactate production assay. […] Proteins were removed from 50 μL of the medium by adding 100 μL of 8% Percloric Acid and 40% EtOH at 4 °C, and centrifuging at 2 × 10^4 g for 10 min at 4 °C. The supernatants were then frozen until the lactate in 15 μL of each sample, or lactate standard, was measured mixed with 150 μl of assay buffer (0.5 M glycine [pH 9.5], 0.2 M Hydrazine, 3.4 mM EDTA), 100 μl of H20, 5 μL of 1100 U/mL LDH (Roche) and 30 μL of 15 mM NAD + . NADH production was evaluated by measuring absorbance at 340 nm in a multiplate reader (Synergy HT, Biotek) and it was proportional to the lactic acid concentration in the sample after a 2 h incubation. The lactate concentration was normalized to the total amount of protein measured with the Micro BCA Protein Assay Kit (Thermo Scientific). Assays were performed in triplicate in three independent experiments."}, "PANC1 cells [7]": {"tested_on": "PANC1 cells", "assay": "Lactate production assay", "assay_type": "cell-based, human", "conditions": "replicates", "protocol": "as §2"}, "AGS cells [8]": {"tested_on": "AGS cells", "assay": "Lactate production assay", "assay_type": "cell-based, human", "conditions": "replicates", "protocol": "as §2"}, "[9]": {"tested_on": "PANC1 xenografted tumors in NU-Foxn1nu nude mice", "assay": "PANC1 xenograft in vivo treatment", "parameters": "species or system mouse", "conditions": "for Fold-change in tumor volume vs d0: individual tumors", "protocol": "PANC1 cells were then trypsinized and resuspended in RPMI culture medium with 40% Matrigel (no. 45354234, Corning® Matrigel® Basement Membrane Matrix, LDEV-free, Cultek, Spain) at a concentration of 1 × 10^5 cells per 50 μL, and then 50 μL of the resuspended cells were subcutaneously injected into the right and left flanks of female 8 week-old NU-Foxn1nu nude mice (Janvier Labs, France). Tumor growth and volumes were monitored every 2–3 days for up to 4 weeks with a caliper, and tumor volumes (mm^3) were computed using the formula: 0.5 × D12 × D2, where D1 and D2 are the width or the […] diameter and the length or the smallest diameter of a given tumor, respectively. At the end of the experiment, mice were sacrificed, and tumors extracted, photographed, and weighed. (ii) For xenograft in vivo treatment experiments, 1 × 10^6 PANC1 cells resuspended in RPMI culture medium supplemented with 40% Matrigel (Corning®) were orthotopically injected in the pancreas of female NU-Foxn1nu nude mice (Janvier Labs, France). Approximately 2 months post injection, tumors were excised, cut into identical pieces of ~50 mm^3 and implanted (with RPMI culture medium supplemented with 40% Matrigel® Corning®) subcutaneously into the left and right flanks of 15 8 week-old NU-Foxn1nu nude mice (Janvier, France). […] Control mice were treated with 100 µl of physiological saline (0.9% NaCl). Tumor volumes were determined twice per week by caliper measurements throughout the course of the study as described above. At the indicated end point, mice were sacrificed, weighed, blood was collected in EDTA tubes (Aquisel, Cat no. 107545), urine was collected in 1.5 ml Eppendorf tubes, and tumors were excised, weighed, photographed, and fixed in 4% Paraformaldehyde (Alfa Aesar™)."}, "[10]": {"conditions": "PANC1 xenograft, 1.4 mg/kg r.o."}}, "note": "Values joined by “and” are separate entries in the source; they are usually repeats but may differ in a detail not shown here. Equal entries are not always repeated."}
{"smiles": "CC(C)[NH][Pt@SP3]([I])([I])[NH]C(C)C", "note": "[I5, trans-[PtI2(isopropylamine)2]]", "values": [{"measurement": "DHE fluorescence intensity (per cell), cytosolic O2•−", "setting": "PANC1 cells [1]", "result": "90.3731 and 85.3678 and 75.6942 and 74.4248 and 73.3485 and 72.8941"}, {"measurement": "Basal resp.", "setting": "MKN45 cells [2]", "result": "41.12 and 25.16 and 29.99"}, {"measurement": "Maximal resp.", "setting": "MKN45 cells [2]", "result": "70.47 and 41.2 and 48.53"}, {"measurement": "SRC", "setting": "MKN45 cells [2]", "result": "29.35 and 16.04 and 18.54"}, {"measurement": "effect on ECAR", "setting": "MKN45 cells [2]", "result": "strong effect"}, {"measurement": "OCR", "setting": "MKN45 cells [2]; time 1.53 min (I5) / 1.53 min (I6)", "result": "87.0221 pmoles/min/µg protein and 65.8202 pmoles/min/µg protein and 67.2404 pmoles/min/µg protein"}, {"measurement": "OCR", "setting": "MKN45 cells [2]; time 8.04 min (I5) / 8.03 min (I6)", "result": "81.395 pmoles/min/µg protein and 60.0787 pmoles/min/µg protein and 61.987 pmoles/min/µg protein"}, {"measurement": "OCR", "setting": "MKN45 cells [2]; time 14.51 min (I5) / 14.5 min (I6)", "result": "68.3352 pmoles/min/µg protein and 45.5888 pmoles/min/µg protein and 48.6636 pmoles/min/µg protein"}, {"measurement": "OCR", "setting": "MKN45 cells [2]; time 40.66 min (I5) / 40.62 min (I6)", "result": "96.0748 pmoles/min/µg protein and 62.8442 pmoles/min/µg protein and 67.0243 pmoles/min/µg protein"}, {"measurement": "OCR", "setting": "MKN45 cells [2]; time 53.68 min (I5) / 53.58 min (I6)", "result": "97.9086 pmoles/min/µg protein and 60.6467 pmoles/min/µg protein and 66.2231 pmoles/min/µg protein"}, {"measurement": "OCR", "setting": "MKN45 cells [2]; time 60.27 min (I5) / 60.14 min (I6)", "result": "32.7644 pmoles/min/µg protein and 24.8353 pmoles/min/µg protein and 23.7602 pmoles/min/µg protein"}, {"measurement": "OCR", "setting": "MKN45 cells [2]; time 66.75 min (I5) / 66.62 min (I6)", "result": "29.7633 pmoles/min/µg protein and 21.9547 pmoles/min/µg protein and 20.2025 pmoles/min/µg protein"}, {"measurement": "OCR", "setting": "MKN45 cells [2]; time 73.23 min (I5) / 73.1 min (I6)", "result": "27.2124 pmoles/min/µg protein and 20.4304 pmoles/min/µg protein and 18.6726 pmoles/min/µg protein"}, {"measurement": "ATP assay", "setting": "MKN45 cells [3]", "result": "11672 nmoles ATP/mg prot and 496.26 nmoles ATP/mg prot and 8257.16 nmoles ATP/mg prot and 8443 nmoles ATP/mg prot and 9557.85 nmoles ATP/mg prot and 7684.95 nmoles ATP/mg prot and 11572 nmoles ATP/mg prot and 11682.5 nmoles ATP/mg prot and 9034.25 nmoles ATP/mg prot"}, {"measurement": "ATP assay", "setting": "PANC1 cells [4]", "result": "7640.3 nmoles ATP/mg prot and 496.05 nmoles ATP/mg prot and 2595.09 nmoles ATP/mg prot and 2106 nmoles ATP/mg prot and 8408.46 nmoles ATP/mg prot and 9059.04 nmoles ATP/mg prot and 9127 nmoles ATP/mg prot and 10292.6 nmoles ATP/mg prot and 9600 nmoles ATP/mg prot"}, {"measurement": "ATP assay", "setting": "AGS cells [5]", "result": "8571 nmoles ATP/mg prot and 150.2 nmoles ATP/mg prot and 0.01 nmoles ATP/mg prot and 0.05 nmoles ATP/mg prot and 4895.31 nmoles ATP/mg prot and 5882.71 nmoles ATP/mg prot and 4424 nmoles ATP/mg prot and 7769.74 nmoles ATP/mg prot and 709.57 nmoles ATP/mg prot"}, {"measurement": "lactate assay", "setting": "MKN45 cells [6]", "result": "3.26 Lactate mM/mg prot and 4 Lactate mM/mg prot and 1.31 Lactate mM/mg prot and 1.423 Lactate mM/mg prot and 0.8373 Lactate mM/mg prot and 1.863 Lactate mM/mg prot and 1.55 Lactate mM/mg prot and 1.53 Lactate mM/mg prot and 1.48 Lactate mM/mg prot"}, {"measurement": "lactate assay", "setting": "PANC1 cells [7]", "result": "5.32 Lactate mM/mg prot and 7.44 Lactate mM/mg prot and 7.29 Lactate mM/mg prot and 4.009 Lactate mM/mg prot and 7.435 Lactate mM/mg prot and 6.316 Lactate mM/mg prot and 4.98 Lactate mM/mg prot and 4.88 Lactate mM/mg prot and 4.97 Lactate mM/mg prot"}, {"measurement": "lactate assay", "setting": "AGS cells [8]", "result": "1.16 Lactate mM/mg prot and 3.26 Lactate mM/mg prot and 1.86 Lactate mM/mg prot and 0.01 Lactate mM/mg prot and 0.05431 Lactate mM/mg prot and 0.02716 Lactate mM/mg prot and 0.02 Lactate mM/mg prot and 0.03 Lactate mM/mg prot"}, {"measurement": "Fold-change in tumor volume vs d0", "setting": "[9]; IP, 0 days post-treatment initiation", "result": 1}, {"measurement": "Fold-change in tumor volume vs d0", "setting": "[9]; IP, 3 days post-treatment initiation", "result": "1.05 and 1.45 and 0.79 and 1.51 and 1.63 and 0.95 and 1.1"}, {"measurement": "Fold-change in tumor volume vs d0", "setting": "[9]; IP, 7 days post-treatment initiation", "result": "1.29 and 1.56 and 0.79 and 1.32 and 1.71 and 0.86 and 1.49"}, {"measurement": "Fold-change in tumor volume vs d0", "setting": "[9]; IP, 10 days post-treatment initiation", "result": "1.75 and 2.48 and 0.96 and 2.5 and 2.73 and 1.37 and 2.28"}, {"measurement": "Fold-change in tumor volume vs d0", "setting": "[9]; IP, 14 days post-treatment initiation", "result": "2.21 and 4.16 and 0.85 and 2.92 and 3.98 and 1.35 and 3.75"}, {"measurement": "Fold-change in tumor volume vs d0", "setting": "[9]; IP, 17 days post-treatment initiation", "result": "3.08 and 4.39 and 0.91 and 3.92 and 4.58 and 1.62 and 4.25"}, {"measurement": "tumor growth", "setting": "[9]; PANC1 xenograft, 1.4 mg/kg i.p.", "result": "reduced tumor growth"}, {"measurement": "tumor growth", "setting": "[9]; [10]", "result": "reduced tumor growth"}, {"measurement": "tumor volume at conclusion of the experiment", "setting": "[9]; [10]", "result": "statistically significant effect on tumor volume"}, {"measurement": "tumor weight at conclusion of the experiment", "setting": "[9]; [10]", "result": "marked reduction in tumor weight"}, {"measurement": "Fold-change in tumor volume vs d0", "setting": "[9]; RO, 0 days post-treatment initiation", "result": 1}, {"measurement": "Fold-change in tumor volume vs d0", "setting": "[9]; RO, 3 days post-treatment initiation", "result": "0.66 and 0.95 and 1.12 and 1.34 and 1.68"}, {"measurement": "Fold-change in tumor volume vs d0", "setting": "[9]; RO, 7 days post-treatment initiation", "result": "0.81 and 1.29 and 1.57 and 1.05 and 1.08"}, {"measurement": "Fold-change in tumor volume vs d0", "setting": "[9]; RO, 10 days post-treatment initiation", "result": "0.74 and 2.21 and 2.36 and 1.14 and 1.44"}, {"measurement": "Fold-change in tumor volume vs d0", "setting": "[9]; RO, 14 days post-treatment initiation", "result": "0.85 and 2.64 and 3.43 and 1.26 and 1.18"}, {"measurement": "Fold-change in tumor volume vs d0", "setting": "[9]; RO, 17 days post-treatment initiation", "result": "1.43 and 3.89 and 4.46 and 1.56 and 1.13"}]}
